pIC50: −log10 of the molar value.

The target in test [1] is T1, CRAF (Homo sapiens, UniProt P04049). Conditions: selectivity over BRAFWT; cited from earlier work.
For test [2], the target named is T2, BRAFV600E (Homo sapiens, UniProt P15056, V600E). Conditions: selectivity over BRAFWT; cited from earlier work.
Test [3] has as its target T2, BRAFV600E. The test can be described thus: Enzymatic activity (IC50) on BRAFV600E. It is filed as biochemical. Conditions: for pIC50: enzymatic activity; for times more potent for BRAFV600E than the previous series: versus N-(3-(3-alkyl-1H-pyrazol-5-yl)phenyl)-aryl amide derivatives. How it is done: (§1) The IC50 values for BRAFV600E and CRAF were measured for each of the 12 compounds synthesised (Table 1). The compounds were all designed as 1, 3, 5-substituted benzyl group hydrophobic tails to maintain the selectivity of the previous series.

Test [4] concerns the target T1, CRAF. The test can be described thus: Enzymatic activity (IC50) on CRAF. The test is classed as biochemical. Conditions: for pIC50: enzymatic activity. How it is done: as §1
For test [5], the target named is BRAFWT (Homo sapiens, UniProt P15056). Kind of test: Enzymatic activity (IC50) on BRAFWT. It is filed as biochemical. How it is done:
(§2) Next, we used kinase panel screening in duplicate for compound 23b over 35 different kinases at a single-dose concentration of 10 μM (Table 2). The compound was indeed a selective BRAFV600E and CRAF inhibitor with an excellent selectivity profile. This compound has an inhibitory activity of more than 90% on CRAF and BRAF V600E at a concentration of 10 μM; the inhibition activity was less than 20% for most other kinases, including wild-type BRAF. We further determined the IC50 value of 23b on wild-type BRAF to be over than 20 μM, where we could confirm selectivity (Table 3). In order to investigate the effect of 23b in living cells, the human colon cancer cell line […] expressing wild-type BRAF and the malignant melanoma A375 cell line expressing BRAFV600E were treated with increasing concentrations of 23b.

In test [6] the test system is human colon cancer cell line SW620 expressing wild-type BRAF. The test can be described thus: MTT assay, SW620 cells. It is filed as cell-based. How it is done:
as §2

Test [7] addresses T1, CRAF. Kind of test: Kinase panel screening, single dose 10 μM, CRAF. Conditions: in duplicate, read-out: inhibitory activity on CRAF. It is filed as biochemical. How it is done: as §2
(§3) We designed and synthesized selective, efficacious inhibitors for BRAFV600E and CRAF by in silico modeling using the Maestro programme.[20] […] We attempted kinase panel screening for compound 23b over 35 different kinases at a single-dose concentration of 10 μM (Table 2, performed in duplicate). The compound was, indeed, a selective BRAFV600E and CRAF inhibitor with an excellent selectivity profile. This compound has an inhibitory activity of 99% on BRAF V600E and CRAF at this concentration. The inhibition activity was less than 20% in most other kinases, including BRAFWT.

The subject of test [8] is 35 different kinases. Kind of test: Kinase panel screening, single dose 10 μM, other kinases of the panel. The test is classed as biochemical. Conditions: in duplicate, most other kinases of the 35-kinase panel. How it is done:
as §2, §3

The test system of test [9] is malignant melanoma A375 cell line expressing BRAFV600E. Kind of test: MTT assay, A375 cells. It is filed as cell-based. Conditions: Homo sapiens, A-375. How it is done: as §2
Test [10] has as its target T2, BRAFV600E. The test can be described thus: Kinase panel screening, single dose 10 μM, BRAF V600E. Conditions: in duplicate, read-out: inhibitory activity on BRAF V600E. The test is classed as biochemical. How it is done: as §2, §3
For test [11], the target named is wild-type BRAF (Homo sapiens, UniProt P15056). The test can be described thus: Kinase panel screening, single dose 10 μM, wild-type BRAF. It is filed as biochemical. Conditions: in duplicate. How it is done: as §2, §3
wild-type BRAF, sequence (P15056 whole entry): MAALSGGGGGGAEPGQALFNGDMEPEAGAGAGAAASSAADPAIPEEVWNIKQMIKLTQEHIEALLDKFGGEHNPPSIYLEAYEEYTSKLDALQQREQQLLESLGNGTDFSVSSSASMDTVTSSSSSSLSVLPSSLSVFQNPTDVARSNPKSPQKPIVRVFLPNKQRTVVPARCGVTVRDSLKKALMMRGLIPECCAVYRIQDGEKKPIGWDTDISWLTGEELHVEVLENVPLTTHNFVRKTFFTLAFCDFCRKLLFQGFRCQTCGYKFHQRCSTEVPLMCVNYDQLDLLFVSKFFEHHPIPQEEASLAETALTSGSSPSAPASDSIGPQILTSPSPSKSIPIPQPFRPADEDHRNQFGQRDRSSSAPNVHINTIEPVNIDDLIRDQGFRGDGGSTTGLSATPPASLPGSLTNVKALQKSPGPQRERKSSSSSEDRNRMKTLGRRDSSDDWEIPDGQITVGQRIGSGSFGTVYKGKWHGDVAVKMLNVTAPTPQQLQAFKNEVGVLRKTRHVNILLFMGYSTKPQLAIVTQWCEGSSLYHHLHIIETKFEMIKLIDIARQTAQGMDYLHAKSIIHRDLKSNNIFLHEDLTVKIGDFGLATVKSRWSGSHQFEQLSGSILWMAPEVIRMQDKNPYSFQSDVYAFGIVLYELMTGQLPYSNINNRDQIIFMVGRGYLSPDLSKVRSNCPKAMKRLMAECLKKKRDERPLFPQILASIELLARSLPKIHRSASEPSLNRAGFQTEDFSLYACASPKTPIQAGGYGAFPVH

T2 sequence (P15056 whole entry V600E): as the sequence (P15056 whole entry) above, with V600E counted along it
BRAFWT, sequence (P15056 whole entry): as the sequence (P15056 whole entry) above
T1 sequence (P04049 whole entry): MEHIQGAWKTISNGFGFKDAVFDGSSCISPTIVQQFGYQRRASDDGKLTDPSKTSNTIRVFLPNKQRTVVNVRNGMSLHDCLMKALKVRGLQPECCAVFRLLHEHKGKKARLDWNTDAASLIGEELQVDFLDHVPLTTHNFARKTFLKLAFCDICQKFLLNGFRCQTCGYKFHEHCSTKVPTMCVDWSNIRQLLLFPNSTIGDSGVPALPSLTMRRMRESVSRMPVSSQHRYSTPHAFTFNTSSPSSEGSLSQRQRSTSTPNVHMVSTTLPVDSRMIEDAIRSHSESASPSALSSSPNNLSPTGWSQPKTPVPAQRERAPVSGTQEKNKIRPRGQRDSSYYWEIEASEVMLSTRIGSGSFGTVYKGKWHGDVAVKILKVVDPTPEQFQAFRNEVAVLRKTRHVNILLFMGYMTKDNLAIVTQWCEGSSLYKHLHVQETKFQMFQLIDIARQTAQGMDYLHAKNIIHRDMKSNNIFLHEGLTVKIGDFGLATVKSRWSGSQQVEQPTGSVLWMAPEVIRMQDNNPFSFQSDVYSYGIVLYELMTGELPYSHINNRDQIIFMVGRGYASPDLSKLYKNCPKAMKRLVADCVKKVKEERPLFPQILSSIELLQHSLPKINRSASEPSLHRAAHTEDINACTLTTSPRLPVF

On to `CC(C)c1cc(-c2cccc(NC(=O)c3cc(N4CCN(C)CC4)cc(C(F)(F)F)c3)c2)[nH]n1` [Compound 2, N-(3–(3-alkyl-1H-pyrazol-5-yl)phenyl)-aryl amide], for which the “times more potent on CRAF than on BRAFWT” value in [1] is 126 times. Further, in test [2], the “times more potent on BRAFV600E than on BRAFWT” value was 20 times.

For `O=C(Nc1cccc(-c2cc(C(=O)NCCN3CCOCC3)[nH]n2)c1)c1cc(N2CCOCC2)cc(C(F)(F)F)c1` [Compound 20a], the negative logarithm of the IC50 (pIC50) – broadly, the negative decadic logarithm of the IC50, by convention in mol/L – in test [3] is 5.55; in test [4], 5.82; in test [5] it was 4.79.

As to `Cc1nccn1-c1cc(C(=O)Nc2cccc(-c3cc(C(=O)NCCN4CCOCC4)[nH]n3)c2)cc(C(F)(F)F)c1` [Compound 20b], the negative-log IC50 (pIC50) in [3] is 6.01; in [4], 6.23; in test [5], 4.88.

As to `Cc1cn(-c2cc(C(=O)Nc3cccc(-c4cc(C(=O)NCCN5CCOCC5)[nH]n4)c3)cc(C(F)(F)F)c2)cn1` [Compound 20c], the pIC50 in test [3] was 6.04; in test [4] it was 6.24; in test [5] it was 4.83.

Turning to `CN1CCN(c2cc(C(=O)Nc3cccc(-c4cc(C(=O)NCCN5CCOCC5)[nH]n4)c3)cc(C(F)(F)F)c2)CC1` [Compound 20d], the results for the pIC50 in test [3], in test [4] and in test [5] were 5.57, 5.94 and under 4.70, respectively.

Turning to `O=C(Nc1cccc(-c2cc(C(=O)NCCN3CCNCC3)[nH]n2)c1)c1cc(N2CCOCC2)cc(C(F)(F)F)c1` [Compound 22a], the negative-log IC50 (pIC50) in test [3] was 5.68; in test [4], 5.80; in test [5] it was under 4.70.

For `Cc1nccn1-c1cc(C(=O)Nc2cccc(-c3cc(C(=O)NCCN4CCNCC4)[nH]n3)c2)cc(C(F)(F)F)c1` [Compound 22b], the pIC50 is 5.90 in test [3], 6.08 in test [4] and 4.89 in test [5].

Regarding `Cc1cn(-c2cc(C(=O)Nc3cccc(-c4cc(C(=O)NCCN5CCNCC5)[nH]n4)c3)cc(C(F)(F)F)c2)cn1` [Compound 22c], the pIC50 is 5.82 in test [3] and 6.24 in [4].

For `O=C(Nc1cccc(-c2cc(C(=O)OCCN3CCOCC3)[nH]n2)c1)c1cc(N2CCOCC2)cc(C(F)(F)F)c1` [Compound 23a], the figures for the pIC50 in [3], in test [4] and in [5] were 6.17, 6.89 and under 4.70, respectively.

For `Cc1nccn1-c1cc(C(=O)Nc2cccc(-c3cc(C(=O)OCCN4CCOCC4)[nH]n3)c2)cc(C(F)(F)F)c1` [Compound 23b], the 50% growth inhibitory concentration (GI50) (in general, the concentration that inhibits growth by half) in test [6] (Homo sapiens, SW-620, SW620 cells expressing BRAFWT) was over 10000 nM; in test [9] it was 70 nM. In test [6] (increasing concentrations, SW620 cells expressing BRAFWT), the “inhibition of the proliferation” value is recorded as “not in the cells expressing BRAFWT”. The pIC50 in test [3] is 7.00; in test [4] it was 7.70; in test [5] it was under 4.70. The “times more potent for BRAFV600E than the previous series” value in [3] is reported as 7 times; in test [3] (listed as 23 b), “seven”. The inhibition at 10 µM is over 90% in [7], over 90% in [10] and under 20% in test [11]. Besides, in [8], the “inhibition activity for most other kinases” value is recorded as “less than 20%”. In addition, the “times more potent for CRAF than the previous series” value in [4] (versus N-(3-(3-alkyl-1H-pyrazol-5-yl)phenyl)-aryl amide derivatives) is given as 5 times.

Take `Cc1cn(-c2cc(C(=O)Nc3cccc(-c4cc(C(=O)OCCN5CCOCC5)[nH]n4)c3)cc(C(F)(F)F)c2)cn1` [Compound 23c]: the pIC50 is 6.48 in [3], 7.22 in test [4] and under 4.70 in test [5].

With `CN1CCN(c2cc(C(=O)Nc3cccc(-c4cc(C(=O)OCCN5CCOCC5)[nH]n4)c3)cc(C(F)(F)F)c2)CC1` [Compound 23d], the negative logarithm of the IC50 (pIC50) in test [3] was 6.17; in test [4], 6.80; in test [5] it was under 4.70.

In the case of `O=C(Nc1cccc(-c2cc(C(=O)OCCN3CCCCC3)[nH]n2)c1)c1cc(N2CCOCC2)cc(C(F)(F)F)c1` [Compound 24], the values for the pIC50 in test [3], in [4] and in test [5] were 6.40, 6.68 and under 4.70, respectively.

The record behind these values is article PMC6691785, “Computer-aided design and synthesis of 3-carbonyl-5-phenyl-1H-pyrazole as highly selective and potent BRAFV600E and CRAF inhibitor” (Journal of Enzyme Inhibition and Medicinal Chemistry, 2019).
